In the supplement of paper PMC11208160:

Assay: recombinant barcode read abundance after kanamycin selection (control-corrected) (log10(CPM+1)); higher = more efficient recombination; sequences stand for … in AGTGCAGAGAAAATCGGCCAGTTTTCTCTGCCTGCAGTCCGCATGCCGT…ATTTATGCAGCGGACTGCCTTTCTCCCAAAGTGATAAACCGGACAGTATCATGGACCGGTTTTCCCGGTAATCCGTATTTGCAAGGTTGGTTTCACT; site = the 11-nt target
Procedure: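 Same pooled E. coli target screen (IS621 bridge recombinase, kanamycin selection, control-corrected CPM, mean of 2 biological replicates). Here the two core-binding nucleotides of the LTG and RTG of the bridge RNA target-binding loop are mutated. Target and donor CT cores are held constant, and the other 9 guide positions match the target. The target is read from the library oligo sequence. Molecule = full bridge RNA written as DNA: nt 1-80 from the library oligo, rest WT scaffold.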
For “ATGCTTTCTTGGGTTCTAACCTGTTGCCTTC [ATGCTTTCTAG_LTGcore_CT_RTGcore_GA] (site ATGCTTTCTAG) (LTG core: CT, RTG core: GA)”, the “recombinant barcode read abundance (log10)” value was 0.0663. For “ATGCTTTGGTGGGTTCTAACCTGTTGCCTAG [ATGCTTTCTAG_LTGcore_GG_RTGcore_CT] (site ATGCTTTCTAG) (LTG core: GG, RTG core: CT)”, the “recombinant barcode read abundance (log10)” value was 0.179. With “ATGCTTTGTTGGGTTCTAACCTGTTGCCTAC [ATGCTTTCTAG_LTGcore_GT_RTGcore_GT] (site ATGCTTTCTAG) (LTG core: GT, RTG core: GT)” the “recombinant barcode read abundance (log10)” value was 0.302. In the case of “ATGCTTTGTTGGGTTCTAACCTGTTGCCTAG [ATGCTTTCTAG_LTGcore_GT_RTGcore_CT] (site ATGCTTTCTAG) (LTG core: GT, RTG core: CT)”, the “recombinant barcode read abundance (log10)” value is reported as 0.0408. For “ATGTCCCACTGGGTTCTAACCTGTTGCTCAG [ATGTCCCCTGA_LTGcore_AC_RTGcore_CT] (site ATGTCCCCTGA) (LTG core: AC, RTG core: CT)”, the “recombinant barcode read abundance (log10)” value was 0.172. In the case of “ATGTCCCCATGGGTTCTAACCTGTTGCTCAG [ATGTCCCCTGA_LTGcore_CA_RTGcore_CT] (site ATGTCCCCTGA) (LTG core: CA, RTG core: CT)”, the “recombinant barcode read abundance (log10)” value is reported as 0.527. For “ATGTCCCCTTGGGTTCTAACCTGTTGCTCTA [ATGTCCCCTGA_LTGcore_CT_RTGcore_TA] (site ATGTCCCCTGA) (LTG core: CT, RTG core: TA)”, the “recombinant barcode read abundance (log10)” value was 0.107. In the case of “ATGTCCCCTTGGGTTCTAACCTGTTGCTCTC [ATGTCCCCTGA_LTGcore_CT_RTGcore_GA] (site ATGTCCCCTGA) (LTG core: CT, RTG core: GA)”, the “recombinant barcode read abundance (log10)” value is reported as 0.0163. In the case of “ATGTCCCGCTGGGTTCTAACCTGTTGCTCGC [ATGTCCCCTGA_LTGcore_GC_RTGcore_GC] (site ATGTCCCCTGA) (LTG core: GC, RTG core: GC)”, the “recombinant barcode read abundance (log10)” value is reported as 0.103. For “ATGTCCCTATGGGTTCTAACCTGTTGCTCAG [ATGTCCCCTGA_LTGcore_TA_RTGcore_CT] (site ATGTCCCCTGA) (LTG core: TA, RTG core: CT)”, the “recombinant barcode read abundance (log10)” value was 0.0463. In the case of “ATGTCCCTATGGGTTCTAACCTGTTGCTCTA [ATGTCCCCTGA_LTGcore_TA_RTGcore_TA] (site ATGTCCCCTGA) (LTG core: TA, RTG core: TA)”, the “recombinant barcode read abundance (log10)” value is reported as 0.208. For “ATGTCCCTTTGGGTTCTAACCTGTTGCTCAA [ATGTCCCCTGA_LTGcore_TT_RTGcore_TT] (site ATGTCCCCTGA) (LTG core: TT, RTG core: TT)”, the “recombinant barcode read abundance (log10)” value was 0.0472. With “CATATTAAGTGGGTTCTAACCTGTTGCCTCT [CATATTACTAG_LTGcore_AG_RTGcore_AG] (site CATATTACTAG) (LTG core: AG, RTG core: AG)” the “recombinant barcode read abundance (log10)” value was 0.0293. For “CATATTAATTGGGTTCTAACCTGTTGCCTAG [CATATTACTAG_LTGcore_AT_RTGcore_CT] (site CATATTACTAG) (LTG core: AT, RTG core: CT)”, the “recombinant barcode read abundance (log10)” value was 0.195. With “CATATTACATGGGTTCTAACCTGTTGCCTAG [CATATTACTAG_LTGcore_CA_RTGcore_CT] (site CATATTACTAG) (LTG core: CA, RTG core: CT)” the “recombinant barcode read abundance (log10)” value was 0.126. For “CATATTACTTGGGTTCTAACCTGTTGCCTAC [CATATTACTAG_LTGcore_CT_RTGcore_GT] (site CATATTACTAG) (LTG core: CT, RTG core: GT)”, the “recombinant barcode read abundance (log10)” value was 1.01. In the case of “CATATTAGATGGGTTCTAACCTGTTGCCTTC [CATATTACTAG_LTGcore_GA_RTGcore_GA] (site CATATTACTAG) (LTG core: GA, RTG core: GA)”, the “recombinant barcode read abundance (log10)” value is reported as 0.0675. In the case of “CATATTAGCTGGGTTCTAACCTGTTGCCTAG [CATATTACTAG_LTGcore_GC_RTGcore_CT] (site CATATTACTAG) (LTG core: GC, RTG core: CT)”, the “recombinant barcode read abundance (log10)” value is reported as 0.73. In the case of “CATATTAGGTGGGTTCTAACCTGTTGCCTAG [CATATTACTAG_LTGcore_GG_RTGcore_CT] (site CATATTACTAG) (LTG core: GG, RTG core: CT)”, the “recombinant barcode read abundance (log10)” value is reported as 0.182. In the case of “CATATTATATGGGTTCTAACCTGTTGCCTTA [CATATTACTAG_LTGcore_TA_RTGcore_TA] (site CATATTACTAG) (LTG core: TA, RTG core: TA)”, the “recombinant barcode read abundance (log10)” value is reported as 0.00689. For “CGAGCCCACTGGGTTCTAACCTGTTGCTGGT [CGAGCCCCTCA_LTGcore_AC_RTGcore_AC] (site CGAGCCCCTCA) (LTG core: AC, RTG core: AC)”, the “recombinant barcode read abundance (log10)” value was 0.0238. For “CGAGCCCCGTGGGTTCTAACCTGTTGCTGAG [CGAGCCCCTCA_LTGcore_CG_RTGcore_CT] (site CGAGCCCCTCA) (LTG core: CG, RTG core: CT)”, the “recombinant barcode read abundance (log10)” value was 0.587. With “CGAGCCCCTTGGGTTCTAACCTGTTGCTGAC [CGAGCCCCTCA_LTGcore_CT_RTGcore_GT] (site CGAGCCCCTCA) (LTG core: CT, RTG core: GT)” the “recombinant barcode read abundance (log10)” value was 0.19. In the case of “CGAGCCCCTTGGGTTCTAACCTGTTGCTGCA [CGAGCCCCTCA_LTGcore_CT_RTGcore_TG] (site CGAGCCCCTCA) (LTG core: CT, RTG core: TG)”, the “recombinant barcode read abundance (log10)” value is reported as 0.0283. For “CGAGCCCCTTGGGTTCTAACCTGTTGCTGGC [CGAGCCCCTCA_LTGcore_CT_RTGcore_GC] (site CGAGCCCCTCA) (LTG core: CT, RTG core: GC)”, the “recombinant barcode read abundance (log10)” value was 0.405. With “CGAGCCCGCTGGGTTCTAACCTGTTGCTGAG [CGAGCCCCTCA_LTGcore_GC_RTGcore_CT] (site CGAGCCCCTCA) (LTG core: GC, RTG core: CT)” the “recombinant barcode read abundance (log10)” value was 0.195. For “CGAGCCCGCTGGGTTCTAACCTGTTGCTGGC [CGAGCCCCTCA_LTGcore_GC_RTGcore_GC] (site CGAGCCCCTCA) (LTG core: GC, RTG core: GC)”, the “recombinant barcode read abundance (log10)” value was 0.0793. For “CGAGCCCGTTGGGTTCTAACCTGTTGCTGAG [CGAGCCCCTCA_LTGcore_GT_RTGcore_CT] (site CGAGCCCCTCA) (LTG core: GT, RTG core: CT)”, the “recombinant barcode read abundance (log10)” value was 0.102. With “CGCGCCCAATGGGTTCTAACCTGTTGCGGTT [CGCGCCCCTCC_LTGcore_AA_RTGcore_AA] (site CGCGCCCCTCC) (LTG core: AA, RTG core: AA)” the “recombinant barcode read abundance (log10)” value was 0.134. For “CGCGCCCACTGGGTTCTAACCTGTTGCGGAG [CGCGCCCCTCC_LTGcore_AC_RTGcore_CT] (site CGCGCCCCTCC) (LTG core: AC, RTG core: CT)”, the “recombinant barcode read abundance (log10)” value was 0.0345. For “CGCGCCCACTGGGTTCTAACCTGTTGCGGGT [CGCGCCCCTCC_LTGcore_AC_RTGcore_AC] (site CGCGCCCCTCC) (LTG core: AC, RTG core: AC)”, the “recombinant barcode read abundance (log10)” value was 0.0786. In the case of “CGCGCCCCCTGGGTTCTAACCTGTTGCGGAG [CGCGCCCCTCC_LTGcore_CC_RTGcore_CT] (site CGCGCCCCTCC) (LTG core: CC, RTG core: CT)”, the “recombinant barcode read abundance (log10)” value is reported as 0.158. In the case of “CGCGCCCCTTGGGTTCTAACCTGTTGCGGAC [CGCGCCCCTCC_LTGcore_CT_RTGcore_GT] (site CGCGCCCCTCC) (LTG core: CT, RTG core: GT)”, the “recombinant barcode read abundance (log10)” value is reported as 0.0615. For “CGCGCCCCTTGGGTTCTAACCTGTTGCGGAT [CGCGCCCCTCC_LTGcore_CT_RTGcore_AT] (site CGCGCCCCTCC) (LTG core: CT, RTG core: AT)”, the “recombinant barcode read abundance (log10)” value was 0.243. In the case of “CGCGCCCCTTGGGTTCTAACCTGTTGCGGCG [CGCGCCCCTCC_LTGcore_CT_RTGcore_CG] (site CGCGCCCCTCC) (LTG core: CT, RTG core: CG)”, the “recombinant barcode read abundance (log10)” value is reported as 0.0742. For “CGCGCCCCTTGGGTTCTAACCTGTTGCGGGT [CGCGCCCCTCC_LTGcore_CT_RTGcore_AC] (site CGCGCCCCTCC) (LTG core: CT, RTG core: AC)”, the “recombinant barcode read abundance (log10)” value was 0.266. With “CGCGCCCCTTGGGTTCTAACCTGTTGCGGTT [CGCGCCCCTCC_LTGcore_CT_RTGcore_AA] (site CGCGCCCCTCC) (LTG core: CT, RTG core: AA)” the “recombinant barcode read abundance (log10)” value was 0.146. With “CGCGCCCGATGGGTTCTAACCTGTTGCGGAG [CGCGCCCCTCC_LTGcore_GA_RTGcore_CT] (site CGCGCCCCTCC) (LTG core: GA, RTG core: CT)” the “recombinant barcode read abundance (log10)” value was 0.217. With “CGCGCCCGCTGGGTTCTAACCTGTTGCGGGC [CGCGCCCCTCC_LTGcore_GC_RTGcore_GC] (site CGCGCCCCTCC) (LTG core: GC, RTG core: GC)” the “recombinant barcode read abundance (log10)” value was 0.552. With “CGCGCCCGTTGGGTTCTAACCTGTTGCGGAG [CGCGCCCCTCC_LTGcore_GT_RTGcore_CT] (site CGCGCCCCTCC) (LTG core: GT, RTG core: CT)” the “recombinant barcode read abundance (log10)” value was 0.062. In the case of “CGGTCCCCATGGGTTCTAACCTGTTGCCATG [CGGTCCCCTTG_LTGcore_CA_RTGcore_CA] (site CGGTCCCCTTG) (LTG core: CA, RTG core: CA)”, the “recombinant barcode read abundance (log10)” value is reported as 0.185. With “CGGTCCCCGTGGGTTCTAACCTGTTGCCACG [CGGTCCCCTTG_LTGcore_CG_RTGcore_CG] (site CGGTCCCCTTG) (LTG core: CG, RTG core: CG)” the “recombinant barcode read abundance (log10)” value was 0.342. In the case of “CGGTCCCCTTGGGTTCTAACCTGTTGCCAAA [CGGTCCCCTTG_LTGcore_CT_RTGcore_TT] (site CGGTCCCCTTG) (LTG core: CT, RTG core: TT)”, the “recombinant barcode read abundance (log10)” value is reported as 0.0341. For “CGGTCCCCTTGGGTTCTAACCTGTTGCCAAG [CGGTCCCCTTG_LTGcore_CT_RTGcore_CT] (site CGGTCCCCTTG) (LTG core: CT, RTG core: CT)”, the “recombinant barcode read abundance (log10)” value was 1.32.
